# Columns and labels:
# [1] = Lactone ring stability in PBS by HPLC; type: physicochemical; settings: 37° C., 1 μM
# Procedure: FIG. 12 contrasts the improved stabilities of four novel homosilatecans of the present invention with their corresponding silatecan structure containing the α-hydroxylactone functionality. All the experiments of FIG. 12 were conducted in PBS at 37° C.
# (§1) HPLC solvents were from Fisher Scientific.
# To determine the stabilities of homosilatecans in PBS, an aliquot of each of the homosilatecans in DMSO was added to phosphate buffered saline (PBS), pH 7.4 in a HPLC autosampler vial maintained at 37° C. in a water bath to result in final drug concentration of 1 μM. The drug-containing vial was quickly transferred to the autosampler maintained at 37° C. and aliquots analyzed at various time points. All the determinations were done in triplicate. The data was collected and analyzed using Waters Millenium software. The fraction of lactone was calculated using the peak area of lactone and carboxylate peak and using the lactone/carboxylate ratio.
# [2] = Lactone ring stability in whole human blood by HPLC; settings: for Percent Lactone in Human Blood after 3 Hours of Incubation: pH 7.4, 37° C. (Table 4); for % Lactone: whole human blood, 1 μM
# Procedure: All experiments were conducted at pH 7.4 and 37° C.
# as §1
# [3] = Lactone ring stability in mouse blood by HPLC; settings: for Ratio of Lactone Level Mouse/Human / underestimation of human blood lactone level by mouse blood: blood; for Ratio of Lactone Level Mouse/Human: 3 hours of incubation; for Percent Lactone in Mouse Blood after 3 Hours of Incubation: pH 7.4, 37° C.; for underestimation of human blood lactone level by mouse blood: 3 hours
# Procedure: The hydrolysis kinetics of camptothecins in the presence of different blood components were determined by a quantitative C18 reversed-phase high-performance liquid chromatography (HPLC) assay modified from methodologies described previously in the literature cited above. The preparation of whole blood and fractionated blood samples was carried out as described previously. Crystallized HSA of high purity (>97%) from Sigma Chemical (St. Louis, Mo.) was used. HSA stock solutions were prepared in PBS buffer with a final pH of 7.40±0.05. HSA concentrations were determined by UV absorbance at 278 nm using an extinction coefficient of 39,800 M^−1 cm^−1 (Porter, 1992). All other agents were reagent grade and were used without further purification. High purity water provided by a Milli-Q UV PLUS purification system (Bedford, Mass.) was utilized in all experiments. HPLC solvents were from Fisher Scientific. Human plasma and red blood cells were obtained from Central Kentucky Blood Center. […] Blood from mice was collected in heparinized tubes and stored at 5-10° C. until use.
# HPLC assays were performed either on a Waters Alliance 2690 HPLC system equipped with a temperature-controlled autosampler and Waters 474 scanning fluorescence detector. A second HPLC system was composed of a Waters HPLC system composed of 501 HPLC pumps, 717 Plus temperature-controlled autosampler and 470 scanning fluorescence detector. The HPLC assay procedures used for the homosilatecans are summarized below. Solvent A consisted of acetonitrile and Solvent B was 2% triethylammonium acetate, pH 5.5, with a flow rate of 1 ml/min. For DB-38 an isocratic elution was used: 33% Solvent A; 67% Solvent B; λex:345 nm and λem:518 nm. For DB-81 an isocratic elution was used: 56% Solvent A; 44% Solvent B; and λex:375 nm and λem:444 nm. For DB-90 an isocratic elution was used: 41% Solvent A; 59% Solvent B; λex:412 nm and λem:526 nm. For DB-91 an isocratic elution of 42% Solvent A, 58% Solvent B, and λex:392 nm and λem:562 nm.
# To determine drug stability in whole blood, whole blood was incubated at 37° C. for 30 min and pH determined. Blood pH was adjusted to 7.4+/−0.5 using either 0.1 M KOH or 0.1 M HCl. Blood samples were incubated at 37° C. for 30 min and pH remeasured to ensure that it is within the range before an individual assay was started. Aliquots of blood (2 ml each) were removed and placed in three disposable glass test tubes and the tubes were incubated at 37° C. […] Incubation at 37° C. was continued and 150 μl aliquots were removed at different time points and added to 600 μl of cold methanol (−20° C.) in an eppendorf tube. The tube was then vortexed for 10 sec and centrifuged in a table top microcentrifuge at 8000 rpm for 45 sec. The Supernatant was removed and placed in an autosampler vial and the vial quickly added to the autosampler maintained at 4° C. The sample was analyzed immediately on the HPLC set-up. The data analysis was as described for the drug in PBS only samples.
# [4] = Lactone ring stability in PBS containing human serum albumin by HPLC; type: in vitro ADME; settings: PBS with 30 mg/ml HSA, 37° C., 1 μM
# Procedure: FIG. 13 depicts the improved stabilities of four novel homosilatecans of the current invention following incubation in PBS containing 30 mg/ml human serum albumin at 37° C. […] All the experiments of FIG. 14 were conducted in human plasma at 37° C. Plasma samples were continuously aerated by a stream of blood gas resulting in the maintenance of pH at values of 7.5±0.1.
# as §1
# To study the stabilities of homosilatecans in PBS containing human serum albumin (HSA), the HSA was dissolved in PBS, pH 7.4 at the concentration of 30 mg/ml and incubated at 37° C. The pH was measured and adjusted to 7.4+/−0.5 using 0.1 M KOH or 0.1 M HCl. Incubation continued until pH stabilized within the target range. An aliquot of PBS/HSA was removed and placed in an autosampler vial and maintained at 37° C. for 10 min. An aliquot of the drug in DMSO was added to the sample resulting in a final drug concentration of 1 μM. The vial was quickly added to the HPLC autosampler maintained at 37° C. and aliquots were injected and analyzed by HPLC at different time points. The data analysis was as described above for the drug in PBS only samples.
# [5] = Fluorescence anisotropy titration, equilibrium binding to DMPG small unilamellar vesicles; type: physicochemical; settings: negatively charged DMPG vesicles, PBS pH 7.4, 37° C.; K values subject to 10% uncertainty
# Procedure: As a consequence of the brilliant fluorescence emissions from the newly synthesized homosilatecans (a summary of the spectral parameters can be found in Table 1), the lipid bilayer adsorption isotherms summarized in FIG. 4 were relatively free from any background signal. The method of fluorescence anisotropy titration was used to construct the adsorption isotherms. The experiments were conducted at drug concentrations of 1 μM in PBS buffer (37° C.). […] Because of the potential of the lactone ring of the homosilatecans and camptothecins to hydrolyze in PBS, anisotropy values at each lipid concentration were determined immediately (approx. 1 min.) following the addition of the lactone form of each agent to the liposome suspension as to minimize any possibility of conversion to the carboxylate form. Using drug concentrations of 1 μM and long pass filters to isolate emitted light from background signal (that is, scattered exciting light and extraneous fluorescence signal resulting from the possible presence of impurities), signal levels from drugs dissolved in PBS buffer were typically 99.97% in the absence of membrane and greater than 98% in the presence of membrane. Adsorption isotherms were used to determine overall association constants for the homosilatecan, silatecan, and camptothecin drugs. Overall association constants are defined as: K=[AB]/[AF][L] where [AB] represents the concentration of bound drug, [AF] represents the concentration of free drug, and [L] represents the total lipid concentration in the vesicle suspension. This equation is valid when the concentration of free lipid is approximately equal to the concentration of total lipid (that is, the concentration of free lipid is in significant excess over the concentration of bound drug). Provided this condition is satisfied, K may be determined from the inverse of the slope of a double reciprocal plot. In such a double reciprocal plot, 1/fraction of the total drug bound is plotted vs. 1/lipid concentration, with a y-intercept value of 1 (for a system displaying binding site homogeneity). Such double-reciprocal plots for the associations of the new homosilatecans analogs (both lactone and carboxylate forms) with DMPC and DMPG small unilamellar vesicle (SUV) preparations were linear with good correlation coefficients.
# The studies summarized in Table 2 examine the structural basis of homosilatecan associations for lipid bilayers. Two types of membranes were included in these studies which were conducted under near physiological conditions of pH and temperature; these membranes include fluid-phase and electroneutral L-α-dimyristoylphosphatidyl-choline (DMPC); and fluid-phase and negatively-charged L-α-dimyristoylphosphatidylglycerol (DMPG). DMPC and DMPG have identical chain length but the charges on their head groups differ.
# In the studies of Table 2, binding isotherms were constructed using the method of fluorescence anisotropy titration as discussed above, and K values were determined from the slopes of the double-reciprocal plots. The K values are subject to 10% uncertainty. One of the most striking features of the data contained in Table 2 is the strong modulation which can be achieved through the creation of A,B,E-ring modified camptothecins (for example, the homosilatecans known as DB-38, DB-90, and DB-91) or B,E-ring modified camptothecins (for example, the homosilatecan known as DB-81). Homosilatecans containing either a sole substitution at the 7 position or dual substitution at the 7 and 10 positions have been created and found to display very high lipophilicities. Included in Table 2 are camptothecin compounds (topotecan and camptothecin). For DB-81, the lipophilicity for DMPC membranes relative to corresponding value for topotecan increases over 1,400-fold. Data for these agents were included to show the highly lipophilic nature of the new homocamptothecins relative to compounds such as topotecan and camptothecin. […]
structure (smiles),measurement,setting,value
"CCC1(O)CC(=O)OCc2c1cc1n(c2=O)Cc2c-1nc1ccc(N)cc1c2[Si](C)(C)C (racemic) [DB-38, 5-Ethyl-1,4,5,13-tetrahydro-5-hydroxy-10-amino-12-trimethylsilyl-3H,15H-oxepino[3′,4′:6,7]indolizino[1,2-b]quinoline-3,15-dione]",% Lactone,"[1]; PBS pH 7.4, 3 hours",82.8 ± 0.7%
same,% Lactone,"[1]; PBS pH 7.4, 24 hours",26.8 ± 2.3%
same,Percent Lactone in Human Blood after 3 Hours of Incubation,[2],56%
same,% Lactone,"[2]; 3 hours incubation, pH 7.4, 37° C.",56.4 ± 0.6%
same,Ratio of Lactone Level Mouse/Human,[3],1.3
same,Percent Lactone in Mouse Blood after 3 Hours of Incubation,[3],72%
same,% Lactone,[4]; 3 hours,81.4 ± 0.3%
same,% Lactone,[4]; 24 hours,34.1 ± 2.2%
same,KDMPG overall association constant,[5],800 M⁻¹
"CCC1(O)CC(=O)OCc2c1cc1n(c2=O)Cc2c-1nc1ccccc1c2[Si](C)(C)C(C)(C)C (racemic) [DB-81, 5-Ethyl-1,4,5,13-tetrahydro-5-hydroxy-12-tert-butyldimethylsilyl-3H,15H-oxepino[3′,4′:6,7]indolizino[1,2-b]quinoline-3,15-dione]",% Lactone,"[1]; PBS pH 7.4, 3 hours",84.9 ± 0.3%
same,% Lactone,"[1]; PBS pH 7.4, 24 hours",30.9 ± 2.0%
same,Percent Lactone in Human Blood after 3 Hours of Incubation,[2],87%
same,% Lactone,"[2]; 24 hours incubation, 37° C.",27.0 ± 2.3%
same,underestimation of human blood lactone level by mouse blood,[3],6%
same,Ratio of Lactone Level Mouse/Human,[3],0.9
same,Percent Lactone in Mouse Blood after 3 Hours of Incubation,[3],80%
same,% Lactone,[4]; 3 hours,88.1 ± 0.2%
same,% Lactone,[4]; 24 hours,42.5 ± 1.6%
same,KDMPG overall association constant,[5],18500 M⁻¹
"CCC1(O)CC(=O)OCc2c1cc1n(c2=O)Cc2c-1nc1ccc(N)cc1c2[Si](C)(C)C(C)(C)C (racemic) [DB-90, 5-Ethyl-1,4,5,13-tetrahydro-5-hydroxy-10-amino-12-tert-butyldimethylsilyl-3H,15H-oxepino[3′,4′:6,7]indolizino[1,2-b]quinoline-3,15-dione]",% Lactone,"[1]; PBS pH 7.4, 3 hours",83.7 ± 0.5%
same,% Lactone,"[1]; PBS pH 7.4, 24 hours",26.1 ± 1.0%
same,Percent Lactone in Human Blood after 3 Hours of Incubation,[2],85%
same,% Lactone,"[2]; 24 hours incubation, 37° C.",24.6 ± 1.3%
same,Ratio of Lactone Level Mouse/Human,[3],0.7
same,Percent Lactone in Mouse Blood after 3 Hours of Incubation,[3],61%
same,% Lactone,[4]; 3 hours,86.8 ± 0.2%
same,% Lactone,[4]; 24 hours,42.0 ± 2.7%
same,KDMPG overall association constant,[5],9300 M⁻¹
"CCC1(O)CC(=O)OCc2c1cc1n(c2=O)Cc2c-1nc1ccc(O)cc1c2[Si](C)(C)C(C)(C)C (racemic) [DB-91, 5-Ethyl-1,4,5,13-tetrahydro-5-hydroxy-10-hydroxy-12-tert-butyldimethylsilyl-3H,15H-oxepino[3′,4′:6,7]indolizino[1,2-b]quinoline-3,15-dione]",% Lactone,"[1]; PBS pH 7.4, 3 hours",83.1 ± 0.3%
same,% Lactone,"[1]; PBS pH 7.4, 24 hours",32.2 ± 1.0%
same,Percent Lactone in Human Blood after 3 Hours of Incubation,[2],85%
same,% Lactone,"[2]; 24 hours incubation, 37° C.",37.1 ± 1.8%
same,underestimation of human blood lactone level by mouse blood,[3],20%
same,Ratio of Lactone Level Mouse/Human,[3],0.8
same,Percent Lactone in Mouse Blood after 3 Hours of Incubation,[3],70%
same,% Lactone,[4]; 3 hours,82.9 ± 0.3%
same,% Lactone,[4]; 24 hours,33.2 ± 3.0%
same,KDMPG overall association constant,[5],4300 M⁻¹
